A value given as a limit tells only on which side of the number the result lay.

Data set [1] addresses Amyloid-beta precursor protein (Homo sapiens) (UniProt P05067). The experiment in a line: Inhibition of Cu2+-induced HFIP-pretreated amyloid beta (1 to 42) (unknown origin) aggregation at 25 uM measured after 24 hrs by thioflavin-T fluorescence assay relative to control.
Data set [2] has the same target. The experiment in a line: Disaggregation of self-induced amyloid beta (1 to 42) (unknown origin) preformed fibrils at 25 uM measured after 24 hrs by thioflavin-T fluorescence assay relative to control.
For data set [3] the target is unchanged. The data set can be described thus: Inhibition of HFIP-pretreated amyloid beta (1 to 42) (unknown origin) self-aggregation at 25 uM after 24 hrs by thioflavin-T fluorescence assay relative to control.
A short description of data set [4]: Antioxidant activity assessed as AAPH-induced radical scavenging activity by measuring trolox equivalents for oxygen radical absorbance capacity measured every minute for 90 mins by ORAC-FL assay. It counts as functional.
Data set [5] addresses T1, Amine oxidase [flavin-containing] A (Homo sapiens, UniProt P21397).
T1 sequence (P21397 whole entry): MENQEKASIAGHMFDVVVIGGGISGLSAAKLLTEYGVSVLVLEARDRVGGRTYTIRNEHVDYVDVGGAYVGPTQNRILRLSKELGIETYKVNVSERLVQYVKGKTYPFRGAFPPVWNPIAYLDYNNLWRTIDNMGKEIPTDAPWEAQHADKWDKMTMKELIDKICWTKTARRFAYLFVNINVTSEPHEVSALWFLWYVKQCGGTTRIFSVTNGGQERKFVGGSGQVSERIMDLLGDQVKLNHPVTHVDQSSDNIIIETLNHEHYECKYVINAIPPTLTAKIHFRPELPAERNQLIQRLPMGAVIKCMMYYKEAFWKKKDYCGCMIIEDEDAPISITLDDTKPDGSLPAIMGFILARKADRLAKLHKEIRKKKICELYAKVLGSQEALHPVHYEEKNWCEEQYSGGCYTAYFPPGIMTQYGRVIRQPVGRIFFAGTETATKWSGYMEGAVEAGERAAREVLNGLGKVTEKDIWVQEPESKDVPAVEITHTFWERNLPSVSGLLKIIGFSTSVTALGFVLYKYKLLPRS
The experiment in a line: Inhibition of recombinant human MAOA expressed in baculovirus infected in BTI cells at 10 uM using kynuramine as substrate after 30 mins by fluorescence based assay relative to control. The conditions noted are these: 0.5 h.

Data set [6] has as its target T2, Amine oxidase [flavin-containing] B (Homo sapiens, UniProt P27338).
T2 sequence (P27338 whole entry): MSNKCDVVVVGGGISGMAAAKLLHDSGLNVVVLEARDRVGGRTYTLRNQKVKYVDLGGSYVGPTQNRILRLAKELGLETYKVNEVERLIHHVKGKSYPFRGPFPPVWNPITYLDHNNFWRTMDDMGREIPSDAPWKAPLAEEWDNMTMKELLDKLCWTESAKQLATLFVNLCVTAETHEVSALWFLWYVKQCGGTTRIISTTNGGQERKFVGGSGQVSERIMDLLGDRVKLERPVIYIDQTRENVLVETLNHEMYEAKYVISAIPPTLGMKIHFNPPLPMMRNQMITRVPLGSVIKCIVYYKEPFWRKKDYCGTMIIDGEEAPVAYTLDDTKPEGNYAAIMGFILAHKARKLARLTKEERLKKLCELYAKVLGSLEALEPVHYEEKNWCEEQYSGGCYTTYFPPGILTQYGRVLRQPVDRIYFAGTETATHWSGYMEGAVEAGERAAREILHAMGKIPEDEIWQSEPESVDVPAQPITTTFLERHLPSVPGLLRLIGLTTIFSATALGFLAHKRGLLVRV
The data set can be described thus: Inhibition of recombinant human MAOB expressed in baculovirus infected in BTI cells at 10 uM using kynuramine as substrate after 30 mins by fluorescence based assay relative to control. The settings on record: 0.5 h.

Data set [7] deals with T2, Amine oxidase [flavin-containing] B. The experiment in a line: Inhibition of recombinant human MAOB expressed in baculovirus infected in BTI cells using kynuramine as substrate after 30 mins by fluorescence based assay. It counts as cell-based.
In data set [8] the test system is BV-2. The experiment in a line: Anti-neuroinflammatory activity in mouse BV2 cells assessed as inhibition of LPS-induced NO production at 10 uM preincubated for 30 mins followed by LPS stimulation measured after 24 hrs by Griess reagent based assay relative to control. The data set is classed as functional. Background: Griess reagent forms a coloured azo dye with nitrite.

Data set [9] deals with BV-2. The experiment in a line: Anti-neuroinflammatory activity in mouse BV2 cells assessed as inhibition of LPS-induced TNFalpha production at 2.5 uM preincubated for 30 mins followed by LPS stimulation measured after 24 hrs by ELISA relative to control. The data set is classed as functional. (In general: ELISA stands for enzyme-linked immunosorbent assay.)
Data set [10] deals with BV-2. The data set can be described thus: Effect on nitric oxide production in mouse BV2 cells at 0.5 to 10 uM measured after 30 mins by Griess reagent based […]. It counts as ADME, cell-based. The settings on record: bv-2, 0.5 h.
Data set [11] deals with BV-2. The experiment in a line: Anti-neuroinflammatory activity in mouse BV2 cells assessed as inhibition of LPS-induced NO production at 2.5 uM preincubated for 30 mins followed by LPS stimulation measured after 24 hrs by Griess reagent based assay relative to control. It counts as functional.
The test system of data set [12] is BV-2. The experiment in a line: Anti-neuroinflammatory activity in mouse BV2 cells assessed as inhibition of LPS-induced TNFalpha production at 10 uM preincubated for 30 mins followed by LPS stimulation measured after 24 hrs by ELISA relative to control. It counts as functional.
In data set [13] the test system is BV-2. The data set can be described thus: Cytotoxicity against mouse BV2 cells assessed as reduction in cell viability at 0.5 to 10 uM measured after 30 mins by MTT assay. The data set is classed as cell-based. The conditions noted are these: bv-2, 0.5 h.
Data set [14] deals with BV-2. The experiment in a line: Cytotoxicity against LPS-induced mouse BV2 cells assessed as reduction in cell viability at 0.5 to 10 uM preincubated for 30 mins followed by LPS stimulation and measured after 24 hrs by MTT assay. It counts as cell-based. The conditions noted are these: bv-2, 24 h. (In general: Formazan colour is commonly taken as a measure of viable cells.)

Amyloid-beta precursor protein (Homo sapiens), sequence (P05067 whole entry): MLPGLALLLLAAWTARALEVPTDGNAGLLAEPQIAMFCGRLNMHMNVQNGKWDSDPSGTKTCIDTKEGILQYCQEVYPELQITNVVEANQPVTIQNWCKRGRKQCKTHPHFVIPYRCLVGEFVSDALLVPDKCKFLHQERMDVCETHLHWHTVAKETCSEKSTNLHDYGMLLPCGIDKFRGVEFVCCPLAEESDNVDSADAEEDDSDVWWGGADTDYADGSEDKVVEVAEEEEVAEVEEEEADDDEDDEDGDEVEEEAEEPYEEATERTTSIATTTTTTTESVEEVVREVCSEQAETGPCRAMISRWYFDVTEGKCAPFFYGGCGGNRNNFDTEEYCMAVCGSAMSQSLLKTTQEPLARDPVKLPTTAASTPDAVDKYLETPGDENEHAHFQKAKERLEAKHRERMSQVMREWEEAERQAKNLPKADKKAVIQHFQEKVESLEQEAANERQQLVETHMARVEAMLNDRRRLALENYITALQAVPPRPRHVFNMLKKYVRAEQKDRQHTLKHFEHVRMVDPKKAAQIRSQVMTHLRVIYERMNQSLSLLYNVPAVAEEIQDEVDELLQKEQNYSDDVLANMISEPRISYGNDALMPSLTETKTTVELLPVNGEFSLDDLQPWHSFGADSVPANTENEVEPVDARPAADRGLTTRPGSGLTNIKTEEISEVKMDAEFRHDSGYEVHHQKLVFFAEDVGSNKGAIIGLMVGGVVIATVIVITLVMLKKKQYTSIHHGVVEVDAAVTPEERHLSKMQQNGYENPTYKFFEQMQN

A word on the inhibition: it is the drop in the measured response relative to a control, in per cent. Take `COC(=O)C(C)c1ccc(-c2ccc(NCc3cccc(OC)c3O)cc2)c(F)c1` (stereo not given): the inhibition came out at 39.9% in data set [1] and 46.2% in data set [3]. The Activity stood at 41.7% in data set [2] and 1.68 µMequiv/µM in data set [4]. Also, the inhibition at 10 µM in data set [5] was determined as 10.5%; in data set [6], 11.7%.

For `COC(=O)C(C)c1ccc(-c2ccc(NCc3cc(OC)ccc3O)cc2)c(F)c1` (stereo not given), the values for the inhibition in [1] and in data set [3] were 43.6% and 73.6%, respectively. For the same compound, the Activity in data set [2] was found to be 53.3%; in data set [4], 2.05 µMequiv/µM. For the same compound, the figures for the inhibition at 10 µM in [5] and in [6] were 28.4% and 33.4%, respectively.

What is called IC50 is the concentration that gives 50% inhibition. For `COC(=O)C(C)c1ccc(-c2ccc(NCc3cc(NC(C)=O)ccc3O)cc2)c(F)c1` (stereo not given), the inhibition in data set [1] stood at 24%; in data set [3], 39.2%. The Activity was 27.1% in [2] and 1.65 µMequiv/µM in data set [4]. Moreover, the IC50 in data set [7] came out at 16.3 µM. Also, the inhibition at 10 µM in data set [5] was found to be 18.7%; in data set [6], 46.2%.

For the compound `COC(=O)C(C)c1ccc(-c2ccc(NCc3ccccn3)cc2)c(F)c1` (stereo not given), the inhibition in data set [1] worked out at 37.8%; in data set [3], 48.3%. Further, the Activity in data set [2] amounted to 35.5%; in data set [4], 1.15 µMequiv/µM. Besides, the IC50 in data set [7] is 16.6 µM. Moreover, the inhibition at 10 µM in data set [5] is 36.8%; in data set [6], 45.8%.

For the compound `CC(C(=O)O)c1ccc(-c2ccccc2)c(F)c1` (stereo not given) [FLURBIPROFEN], in data set [1], the inhibition worked out at 7.29%. The figures for the inhibition at 10 µM with BV-2 [8] and with BV-2 [12] were 26.2% and 31.2%, respectively. In addition, the inhibition at 2.5 µM in the data set on BV-2 [9] turned out to be 10.2%; in the data set on BV-2 [11], 12.5%. Also, the Activity result with BV-2 [10] was “Non-Toxic”; in data set [2], 9.28%; with BV-2 [13] it was “Non-Toxic”; in data set [4], 0.17 µMequiv/µM; in the data set with BV-2 [14] it was “Non-Toxic”.

`Oc1c(I)cc(Cl)c2cccnc12`: the results for the inhibition in data set [1] and in data set [3] were 40.1% and 62.4%, respectively. In addition, the values for the Activity in data set [2] and in data set [4] were 51.1% and 0.54 µMequiv/µM, respectively.

On to `COC(=O)C(C)c1ccc(-c2ccc(NCc3cccc(CN(C)C)c3O)cc2)c(F)c1` (stereo not given), for which the inhibition was 41.9% in [1] and 68.6% in [3]. The Activity came out at 45.1% in data set [2] and 2.18 µMequiv/µM in data set [4]. For the same compound, the inhibition at 10 µM is 19.9% in [5] and less than 5% in data set [6].

For `COC(=O)C(C)c1ccc(-c2ccc(NCc3cc(CN(C)C)cc(OC)c3O)cc2)c(F)c1` (stereo not given), the results for the inhibition in data set [1] and in data set [3] were 38.3% and 58.2%, respectively. Moreover, the Activity stood at 49.3% in [2] and 2.07 µMequiv/µM in data set [4]. Further, the inhibition at 10 µM in [5] stood at 17.8%; in [6], 36%.

Take `COC(=O)C(C)c1ccc(-c2ccc(NCc3ccc(OC)cc3O)cc2)c(F)c1` (stereo not given): the inhibition in data set [1] turned out to be 30.6%; in data set [3], 32.8%. Further, the Activity in data set [2] worked out at 25.6%; in data set [4] it was 1.96 µMequiv/µM. Further, the inhibition at 10 µM in [5] was 11.2%; in data set [6], 22.9%.

As to `COC(=O)C(C)c1ccc(-c2ccc(NCc3nc(C)c(C)nc3C)cc2)c(F)c1` (stereo not given), the results for the inhibition in data set [1] and in data set [3] were 22.5% and 27.5%, respectively. In addition, the Activity in data set [2] was found to be 18.3%; in data set [4], 1.69 µMequiv/µM. Besides, the IC50 in data set [7] worked out at 15.1 µM. For the same compound, the values for the inhibition at 10 µM in data set [5] and in [6] were 20.4% and 42.5%, respectively.

As to `COC(=O)C(C)c1ccc(-c2ccc(NCc3cc(Br)cc(Br)c3O)cc2)c(F)c1` (stereo not given), the inhibition in [1] was 38.3%; in data set [3], 57.9%. Besides, the Activity in data set [2] worked out at 35.9%; in data set [4], 1.42 µMequiv/µM. Further, the values for the inhibition at 10 µM in data set [5] and in data set [6] were 17.9% and 16.4%, respectively.

As for `COC(=O)C(C)c1ccc(-c2ccc(NCc3cc(C)ccc3O)cc2)c(F)c1` (stereo not given), the inhibition in data set [1] came out at 49.7%; in data set [3], 58.5%. The Activity was determined as 42.6% in [2] and 1.56 µMequiv/µM in [4]. The inhibition at 10 µM stood at 21.9% in data set [5] and 11.4% in [6].

As for `COc1cc(/C=C/C(=O)CC(=O)/C=C/c2ccc(O)c(OC)c2)ccc1O`, the inhibition in data set [1] and in data set [3] was 32.5% throughout.

With `COC(=O)C(C)c1ccc(-c2ccc(NCc3cc(Br)ccc3O)cc2)c(F)c1` (stereo not given), the figures for the inhibition in data set [1] and in data set [3] were 32% and 37%, respectively. Besides, the results for the Activity in data set [2] and in data set [4] were 36.6% and 1.37 µMequiv/µM, respectively. Moreover, the results for the inhibition at 10 µM in [5] and in data set [6] were 29.3% and 28.4%, respectively.

Take `COC(=O)C(C)c1ccc(-c2ccc(NCc3cc(CN(C)C)ccc3O)cc2)c(F)c1` (stereo not given): the inhibition is 43.7% in [1] and 43% in data set [3]. Also, the Activity came to 51.2% in [2] and 1.92 µMequiv/µM in [4]. Besides, the inhibition at 10 µM in data set [5] was determined as 22.4%; in data set [6], 32.8%.

On to `COC(=O)C(C)c1ccc(-c2ccc(NCc3ccccc3O)cc2)c(F)c1` (stereo not given), for which the results for the inhibition in data set [1] and in data set [3] were 42.9% and 24.7%, respectively. Further, the values for the Activity in data set [2] and in data set [4] were 44.1% and 1.51 µMequiv/µM, respectively. The figures for the inhibition at 10 µM in [5] and in data set [6] were 15.9% and less than 5%, respectively.

In the case of `COC(=O)C(C)c1ccc(-c2ccc(NCc3cccc(CN4CCCCC4)c3O)cc2)c(F)c1` (stereo not given), the figures for the inhibition in [1] and in [3] were 42.4% and 48.8%, respectively. The Activity in data set [2] was determined as 43.3%; in [4], 2.02 µMequiv/µM. Further, the inhibition at 10 µM in data set [5] and in [6] was less than 5% in each case.

With `COC(=O)C(C)c1ccc(-c2ccc(NCc3cc(CN4CCCCC4)ccc3O)cc2)c(F)c1` (stereo not given), the inhibition in [1] and in data set [3] was 29.4% each time. In addition, the Activity amounted to 30.2% in data set [2] and 2.14 µMequiv/µM in data set [4]. Also, the inhibition at 10 µM in [5] was 18.2%; in data set [6], 25.8%.

`COC(=O)C(C)c1ccc(-c2ccc(NCc3cc(Cl)ccc3O)cc2)c(F)c1` (stereo not given): the inhibition in [1] stood at 41.9%; in [3], 48.3%. In addition, the Activity in data set [2] was 41.9%; in data set [4], 1.32 µMequiv/µM. For the same compound, the inhibition at 10 µM in data set [5] is 30.6%; in data set [6] it was less than 5%.

Source of the values: ChEMBL document CHEMBL4627303, “Design, synthesis and evaluation of flurbiprofen-clioquinol hybrids as multitarget-directed ligands against Alzheimer's disease” (Bioorg Med Chem, 2020).
